Experimental data as given in BindingDB's records for doi:10.1016/j.bmcl.2016.07.066 (Presidio Pharmaceuticals, 2016).
pEC50: −log10 of the molar value.

Experiments:
[1] = Inhibition of HCV genotype 3a replicons NS5A infected in human Huh7 cells by luciferase reporter gene assay
[2] = Inhibition of HCV genotype 1a replicons NS5A infected in human Huh7 cells by luciferase reporter gene assay
[3] = Inhibition of HCV genotype 1b replicons NS5A infected in human Huh7 cells by luciferase reporter gene assay
[4] = Inhibition of HCV genotype 3a replicon NS5A
[5] = Inhibition of HCV genotype 1b replicon NS5A S2204I mutant infected in human Huh7 cells
[6] = Inhibition of HCV genotype 1a replicon NS5A S2204I mutant infected in human Huh7 cells

| Structure (SMILES) | pEC50 [1] | pEC50 [2] | pEC50 [3] | pEC50 [4] | pEC50 [5] | pEC50 [6] |
| --- | --- | --- | --- | --- | --- | --- |
| COC(=O)N[C@H](NC(=O)N1CCC[C@H]1c1nc2ccc(-c3ccc4cc(-c5cnc([C@@H]6CCCN6C(=O)[C@@H](NC(=O)OC)C(C)C)[nH]5)ccc4n3)cc2[nH]1)C(C)C | 8.96 | 9.59 | 10.38 | – | – | – |
| CC[C@H](C)[C@H](NC(=O)OC)NC(=O)N1CCC[C@H]1c1nc2ccc(-c3ccc4cc(-c5cnc([C@@H]6CCCN6C(=O)[C@@H](NC(=O)OC)[C@@H](C)OC)[nH]5)ccc4c3)cc2[nH]1 | 9.00 | 10.15 | 10.82 | – | – | – |
| COC(=O)N[C@@H](NC(=O)N1CCC[C@H]1c1nc2ccc(-c3ccc4cc(-c5cnc([C@@H]6CCCN6C(=O)[C@@H](NC(=O)OC)C(C)C)[nH]5)ccc4c3)cc2[nH]1)c1ccccc1 | 10.22 | 9.96 | 10.96 | – | – | – |
| COC(=O)N[C@H](NC(=O)N1CCC[C@H]1c1nc2ccc(-c3ccc4cc(-c5cnc([C@@H]6CCCN6C(=O)[C@@H](NC(=O)OC)[C@@H](C)OC)[nH]5)ccc4c3)cc2[nH]1)[C@@H](C)OC | 8.82 | 9.89 | 10.33 | – | – | – |
| COC(=O)N[C@H](NC(=O)N1CCC[C@H]1c1nc2ccc(-c3ccc4cc(-c5cnc([C@@H]6CCCN6C(=O)[C@@H](NC(=O)OC)C6CCOCC6)[nH]5)ccc4c3)cc2[nH]1)C1CCOCC1 | 8.96 | 9.89 | 9.95 | – | – | – |
| COC(=O)N[C@H](NC(=O)N1CCC[C@H]1c1nc2ccc(-c3ccc4cc(-c5cnc([C@@H]6CCCN6C(=O)[C@@H](NC(=O)OC)C6CCCC6)[nH]5)ccc4c3)cc2[nH]1)C1CCCC1 | 8.62 | 10.30 | 11.52 | – | – | – |
| CC[C@@H](C)[C@H](NC(=O)OC)NC(=O)N1CCC[C@H]1c1nc2ccc(-c3ccc4cc(-c5cnc([C@@H]6CCCN6C(=O)[C@@H](NC(=O)OC)[C@H](C)CC)[nH]5)ccc4c3)cc2[nH]1 | 8.02 | 9.22 | 11.05 | – | – | – |
| COC(=O)N[C@H](NC(=O)N1CCC[C@H]1c1nc2ccc(-c3ccc4cc(-c5cnc([C@@H]6CCCN6C(=O)[C@H](NC(=O)OC)c6ccccc6)[nH]5)ccc4c3)cc2[nH]1)C(C)C | 10.52 | 9.66 | 10.85 | – | – | – |
| COC(=O)N[C@H](NC(=O)N1CCC[C@H]1c1ncc(-c2ccc(-c3ccc(-c4cnc([C@@H]5CCCN5C(=O)[C@@H](NC(=O)OC)C(C)C)[nH]4)cc3)cc2)[nH]1)C(C)C | 9.17 | 9.85 | 10.14 | 9.84 | 11.05 | 10.30 |
| COC(=O)N[C@H](NC(=O)N1CCC[C@H]1c1nc2ccc(-c3ccc4cc(-c5cnc([C@@H]6CCCN6C(=O)[C@@H](NC(=O)OC)C6CCOCC6)[nH]5)ccc4c3)cc2[nH]1)C(C)C | 9.05 | 10.10 | 10.52 | – | – | – |
| COC(=O)N[C@H](NC(=O)N1CCC[C@H]1c1nc2ccc(-c3ccc4cc(-c5cnc([C@@H]6CCCN6C(=O)[C@@H](NC(=O)OC)C(C)C)[nH]5)ccc4c3)cc2[nH]1)C1CCOCC1 | 9.07 | 10.30 | 10.64 | – | – | – |
| COC(=O)N[C@H](NC(=O)N1CCC[C@H]1c1nc2ccc(-c3ccc4cc(-c5cnc([C@@H]6CCCN6C(=O)[C@@H](NC(=O)OC)C(C)C)[nH]5)ccc4c3)nc2[nH]1)C(C)C | 8.68 | 10.10 | 10.60 | – | – | – |
| CC[C@H](C)[C@H](NC(=O)OC)NC(=O)N1CCC[C@H]1c1nc2ccc(-c3ccc4cc(-c5cnc([C@@H]6CCCN6C(=O)[C@@H](NC(=O)OC)[C@@H](C)CC)[nH]5)ccc4c3)cc2[nH]1 | 8.64 | 9.96 | 10.82 | – | – | – |
| COC(=O)N[C@H](NC(=O)N1CCC[C@H]1c1nc2ccc(-c3ccc4cc(-c5cnc([C@@H]6CCCN6C(=O)[C@@H](NC(=O)OC)[C@@H](C)OC)[nH]5)ccc4c3)cc2[nH]1)C(C)C | 8.80 | 10.00 | 10.66 | – | – | – |
| COC(=O)N[C@H](NC(=O)N1CCC[C@H]1c1nc2ncc(-c3ccc4cc(-c5cnc([C@@H]6CCCN6C(=O)[C@@H](NC(=O)OC)C(C)C)[nH]5)ccc4c3)cc2[nH]1)C(C)C | 8.18 | 9.64 | 10.59 | – | – | – |
| COC(=O)N[C@H](NC(=O)N1CCC[C@H]1c1nc2cnc(-c3ccc4cc(-c5cnc([C@@H]6CCCN6C(=O)[C@@H](NC(=O)OC)C(C)C)[nH]5)ccc4c3)cc2[nH]1)C(C)C | 7.82 | 8.92 | 10.28 | – | – | – |
